{"source": "patent US11040949B2", "about": "“Compounds affecting pigment production and methods for treatment of bacterial diseases” (Versitech Limited, priority 2017, dated 2021)", "key": {"[1]": {"test_system": "10 different Staphylococcus aureus (S. aureus) strains", "assay": "IM032 staphyloxanthin production inhibition, all tested strains", "format": "cell-based", "protocol": "(§1) This study aimed to evaluate IM032 for its in vitro efficacy to inhibit the production of staphyloxanthin in different strains of S. aureus.\nCompound IM032 was evaluated for its in vitro efficacy to inhibit staphyloxanthin production in 10 different Staphylococcus aureus (S. aureus) strains, SH1000, HG003, ATCC29213, ATCC700698, COL, JE2, LAC, USA300-3, Newman and ST239III.\n(§2) The negative control was dimethyl sulfoxide (DMSO) which was used to prepare stock solutions and dilutions; positive control in this test was S. aureus strain FPR3757 treated with IM032.\nThe test item was dissolved at 44.9 mg/mL in DMSO at 37° C., aliquoted into several tubes, and stored at −20° C. until use. On the day of testing, a stock solution was serially diluted to testing concentrations with DMSO. […]\nEach test item solution (6 μL) was combined with 0.6 mL of S. aureus culture in brain heart infusion broth (CFU per well=1×10^7). […] After centrifugation, 100 μL of supernatant was transferred to a 96-well cell culture plate and OD450 was measured. The relative pigment production at each tested concentration was calculated as follows: […]\nThe IC50 for each test was determined based on the calculated inhibition ratio from above with Prism 6.0 by employing a non-linear regression (four parameters) fitting method with assigned bottom and top at 0.05 and 0.95 respectively. […]"}, "S. aureus USA300": {"test_system": "S. aureus USA300", "assay": "In vitro staphyloxanthin production inhibition by NP-16 analogues", "format": "cell-based, Staphylococcus aureus", "conditions": "S. aureus USA300, methanol extract OD 450 nm, 300 nM to 700 nM", "protocol": "Evaluation of NP-16 analogues in Staphyloxanthin production\nThe in vitro pigment inhibition studies were performed by S. aureus USA300 cultured in BHI with or without the presence of inhibitor compounds at 37° C. and 250 rpm for 36-48 hours. The bacteria were washed twice with PBS prior to the staphyloxanthin purification with methanol. The OD of the extracts were monitor at 450 nm using DTX880 multi-plate reader spectrophotometer (Beckman). The concentration range tested for the compounds were between 300 nM to 700 nM, and control groups were added with equal volume of DMSO.\nThe cytotoxicity of NP-16 and some of its analogues was tested against Raw 264.7 cells, and the cell tolerance of each compounds were documented in Table 3. Along with the in vitro staphyloxanthin production of the NP-16 analogues were being tested, the compounds can exert staphyloxanthin production inhibition. The staphyloxanthin from the overnight-cultured bacteria were extracted with methanol and quantified in via spectrophotometry. The results were presented in relative ratio to NP-16 in both the inhibition ratio as well as the TC50 (concentration for decreasing cell viability by 50%) in Table 3 (sample names correspond to those listed in Table 1)."}, "S. aureus ATCC29213": {"test_system": "S. aureus ATCC29213", "assay": "IM032 staphyloxanthin production inhibition", "format": "cell-based", "conditions": "Staphylococcus aureus, ATCC 29213 / MSSA", "protocol": "as §1, §2\n(§3) The test item was dissolved at 44.9 mg/mL in DMSO at 37° C., aliquoted into several tubes, and stored at −20° C. until use. On the day of testing, a stock solution was serially diluted to testing concentrations with DMSO. All solutions were vortexed and mixed with a pipette to achieve homogeneity immediately before dilution. A correction factor for purity was not applied to the test item preparations.\n(§4) Each test item solution (6 μL) was combined with 0.6 mL of S. aureus culture in brain heart infusion broth (CFU per well=1×10^7). 12-wells repeats were performed for each concentration in 96-well 2-mL plates. The plates were then incubated in a shaker at 37° C., 250 rpm for 24 hours. The bacteria were centrifuged at 4,000 rpm for 10 min. Next, the bacteria from 4-wells were combined and were washed twice with PBS. Staphyloxanthin was extracted with 300 μL of methanol in a water bath at 60° C. for 1 hour. After centrifugation, 100 μL of supernatant was transferred to a 96-well cell culture plate and OD450 was measured. The relative pigment production at each tested concentration was calculated as follows: […]\n(§5) The IC50 for each test was determined based on the calculated inhibition ratio from above with Prism 6.0 by employing a non-linear regression (four parameters) fitting method with assigned bottom and top at 0.05 and 0.95 respectively. The IC50 presented is the best-fit value.\n(§6) S. aureus strains (ATCC29213, HG003, Mu3, SH1000, and COL) were treated with IM032 at final concentrations of 4,000, 1,000, 250, 63, 16, 4 and 1 nM (FIG. 7A). S. aureus strains (JE2, USA300-3, LAC, ST239III and Newman) were treated with IM032 at final concentrations of 250, 63, 16, 4, 1, 0.2 and 0.06 nM (FIG. 7B). […] The determined IC50 values of the tested strains range from 1.2 to 70 nM (Tables 6 and 7)."}, "S. aureus HG003": {"test_system": "S. aureus HG003", "assay": "IM032 staphyloxanthin production inhibition", "format": "cell-based", "conditions": "Staphylococcus aureus, MSSA", "protocol": "as §1, §2, §3, §4, §5, §6"}, "S. aureus COL": {"test_system": "S. aureus COL", "assay": "IM032 staphyloxanthin production inhibition", "format": "cell-based", "conditions": "Staphylococcus aureus, MRSA", "protocol": "as §1, §2, §3, §4, §5, §6"}, "S. aureus FPR3757": {"test_system": "S. aureus FPR3757", "assay": "IM032 staphyloxanthin production inhibition", "format": "cell-based", "conditions": "Staphylococcus aureus", "protocol": "as §1, §2, §3, §4, §5, §6"}, "S. aureus Newman": {"test_system": "S. aureus Newman", "assay": "IM032 staphyloxanthin production inhibition", "format": "cell-based", "conditions": "Staphylococcus aureus, MSSA / NEWMAN", "protocol": "as §1, §2, §3, §4, §5, §6"}, "S. aureus Mu3": {"test_system": "S. aureus Mu3", "assay": "IM032 staphyloxanthin production inhibition", "format": "cell-based", "conditions": "Staphylococcus aureus", "protocol": "as §1, §2, §3, §4, §5, §6"}, "S. aureus ST239III": {"test_system": "S. aureus ST239III", "assay": "IM032 staphyloxanthin production inhibition", "format": "cell-based", "conditions": "Staphylococcus aureus, MRSA", "protocol": "as §1, §2, §3, §4, §5, §6"}, "S. aureus SH1000": {"test_system": "S. aureus SH1000", "assay": "IM032 staphyloxanthin production inhibition", "format": "cell-based", "conditions": "Staphylococcus aureus, MSSA", "protocol": "as §1, §2, §3, §4, §5, §6"}, "S. aureus USA300-3": {"test_system": "S. aureus USA300-3", "assay": "IM032 staphyloxanthin production inhibition", "format": "cell-based", "conditions": "Staphylococcus aureus", "protocol": "as §1, §2, §3, §4, §5, §6"}, "S. aureus JE2": {"test_system": "S. aureus JE2", "assay": "IM032 staphyloxanthin production inhibition", "format": "cell-based", "conditions": "Staphylococcus aureus", "protocol": "as §1, §2, §3, §4, §5, §6"}, "S. aureus LAC": {"test_system": "S. aureus LAC", "assay": "IM032 staphyloxanthin production inhibition", "format": "cell-based", "conditions": "Staphylococcus aureus", "protocol": "as §1, §2, §3, §4, §5, §6"}}, "data": [{"smiles": "O=C(/C=C/c1ccccc1Br)Nc1ccc(S(=O)(=O)N2CCCCC2)cc1", "note": "[NP16-XL-016, 3-(6-bromophenyl)-N-[4-(1-piperidine-1-sulfonyl)phenyl]-acrylamide]", "values": [{"measurement": "IC50", "setting": "[1]; Staphylococcus aureus, all 10 tested strains, read-out: IC50 of staphyloxanthin production inhibition, range over tested strains", "value": "1.2 to 70", "unit": "nM"}, {"measurement": "bactericidal effect (reduction in optical density)", "setting": "[1]; any concentration of IM032, up to 4,000 nM", "value": "A clear bactericidal effect as evidenced by a reduction in optical density was not observed"}, {"measurement": "Relative ratio to NP16 based on inhibition ratio", "setting": "S. aureus USA300", "value": 2.71}, {"measurement": "IC50", "setting": "S. aureus ATCC29213; Table 6", "value": 18, "unit": "nM"}, {"measurement": "IC50", "setting": "S. aureus ATCC29213; Table 8", "value": "30 ± 5", "unit": "nM"}, {"measurement": "IC50", "setting": "S. aureus HG003; Table 6", "value": 46, "unit": "nM"}, {"measurement": "IC50", "setting": "S. aureus HG003; Table 8", "value": "54.4 ± 4", "unit": "nM"}, {"measurement": "IC50", "setting": "S. aureus COL; Table 6, MRSA (HA)", "value": 1.2, "unit": "nM"}, {"measurement": "IC50", "setting": "S. aureus COL; Table 8, HA-MRSA", "value": "0.9 ± 1", "unit": "nM"}, {"measurement": "IC50", "setting": "S. aureus FPR3757; FPR3757, FPR3757, previous study", "value": 17, "unit": "nM"}, {"measurement": "IC50", "setting": "S. aureus FPR3757; MRSA / USA300, Table 8, USA300 (FPR-3757), CA-MRSA", "value": "30.8 ± 5", "unit": "nM"}, {"measurement": "IC50", "setting": "S. aureus FPR3757; MRSA, Table 6, first experiment, FPR3757, MRSA (CA), positive control", "value": 20, "unit": "nM"}, {"measurement": "IC50", "setting": "S. aureus FPR3757; MRSA, Table 7, second experiment, FPR3757, MRSA (CA), positive control", "value": 28, "unit": "nM"}, {"measurement": "IC50", "setting": "S. aureus Newman; Table 7", "value": 21, "unit": "nM"}, {"measurement": "IC50", "setting": "S. aureus Newman; Table 8", "value": "23.7 ± 1", "unit": "nM"}, {"measurement": "IC50", "setting": "S. aureus Mu3; MU3", "value": 1.8, "unit": "nM"}, {"measurement": "IC50", "setting": "S. aureus Mu3; VISA", "value": "2.6 ± 1", "unit": "nM"}, {"measurement": "IC50", "setting": "S. aureus ST239III; Table 7, ST239III, MRSA (HA)", "value": 19, "unit": "nM"}, {"measurement": "IC50", "setting": "S. aureus ST239III; Table 8, Clinical isolate ST239III, HA-MRSA", "value": "16.3 ± 8", "unit": "nM"}, {"measurement": "IC50", "setting": "S. aureus SH1000; Table 6", "value": 70, "unit": "nM"}, {"measurement": "IC50", "setting": "S. aureus SH1000; Table 8", "value": "70.5 ± 6", "unit": "nM"}, {"measurement": "IC50", "setting": "S. aureus USA300-3; MRSA / USA300, Table 7, USA300-3, MRSA (HA)", "value": 27, "unit": "nM"}, {"measurement": "IC50", "setting": "S. aureus USA300-3; MRSA / USA300, Table 8, USA300-3, HA-MRSA", "value": "42.8 ± 6", "unit": "nM"}, {"measurement": "IC50", "setting": "S. aureus JE2; / USA300", "value": "37.7 ± 4", "unit": "nM"}, {"measurement": "IC50", "setting": "S. aureus JE2; MRSA", "value": 26, "unit": "nM"}, {"measurement": "IC50", "setting": "S. aureus LAC; MRSA", "value": 27, "unit": "nM"}, {"measurement": "IC50", "setting": "S. aureus LAC; MRSA / USA300", "value": "43.6 ± 5", "unit": "nM"}]}]}
